Laboratory results reported in patent US20230310624A1, “AFFIBODY-CYTOTOXIN CONJUGATE FOR ACTIVE TARGETED THERAPY OF TUMORS, NANOPARTICLE THEREOF, PREPARATION METHOD THEREOF AND APPLICATION THEREOF” (priority 2020, published 2023).
Where a SMILES comes first, the peptide text is derived from it. [ ]: non-standard residue; d: D form. The star is where a group is joined. Dolaproine = CO[C@@H]([C@@H]1CCCN1)[C@@H](C)C(=O)O; Dil = CC[C@H](C)[C@H](NC)[C@@H](CC(=O)O)OC; X1 = C[C@@H](N*)[C@@H](O)c1ccccc1; NMeV = CN[C@H](C(=O)O)C(C)C

Assays:
SKOV-3 tumor [1] = assay: therapeutic effects on tumors of SKOV-3 tumor-bearing nude mice; assay type: in vivo
Description: A cell suspension of SKOV-3 cells in logarithmic growth phase is prepared at a concentration of 4.0><10^6 cells/mL, and inoculated subcutaneously into the right anterior axillary of nude mice, 200 μL per mouse; when the volume of tumor is around 100 mm^3, the mice are randomly selected into 4 groups, 5 in each group, which are respectively a PBS control group, a MMAE 0.6 mg/kg group, a ZHER2:342-MMAE nanoparticle group (the content of MMAE is 0.4 mg/kg), and a ZHER2:342-MMAE nanoparticle group (the content of MMAE is 0.6 mg/kg), wherein 200 μl PBS is injected for the PBS group, 0.6 mg/kg of MMAE is injected for the MMAE 0.6 mg/kg group, ZHER2:342-MMAE (containing 0.4 mg/kg MMAE) is injected for the ZHER2:342-MMAE group (containing 0.4 mg/kg MMAE), and ZHER2:342-MMAE (the content of MMAE is 0.6 mg/kg) is injected for the ZHER2:342-MMAE group (the content of MMAE is 0.6 mg/kg), once every 3 days. After each administration, the survival of tumor-bearing nude mice is observed, and the body weight and tumor size of the mice are measured and photographed for preservation.

[2] = in rats; cited from earlier work
SKOV-3 tumor [3] = assay: long-term cycle imaging in SKOV-3 tumor-bearing nude mice; assay type: in vivo
Description: A cell suspension of SKOV-3 cells in logarithmic growth phase is prepared at a concentration of 4.0×10^6 cells/mL, and inoculated subcutaneously into the right anterior axillary of nude mice, 200 μL per mouse; when the volume of tumor is around 500 mm^3, two mice are randomly selected as a control group and an experimental group. […] After 4 h and 12 h of injection, ZKKS-Mulaurora imaging system is used to take pictures and analyze the fluorescence intensity of the whole body of the mice.

CC[C@H](C)[C@@H]([C@@H](CC(=O)N1CCC[C@H]1[C@H](OC)[C@@H](C)C(=O)N[C@H](C)[C@@H](O)c1ccccc1)OC)N(C)C(=O)[C@@H](NC(=O)[C@@H](NC)C(C)C)C(C)C [MMAE, monomethyl auristatin E] (H-[NMeV]V[Dil][Dolaproine]-X1)
body weight of the mice (SKOV-3 tumor [1]; MMAE 0.6 mg/kg, after administration): drops sharply | survival of tumor-bearing nude mice (SKOV-3 tumor [1]; MMAE (content) 0.6 mg/kg, once every 3 days): all died

CC(=O)O[C@H]1C(=O)[C@@]2(C)[C@H]([C@H](OC(=O)c3ccccc3)[C@]3(O)C[C@H](OC(=O)[C@H](O)[C@@H](NC(=O)c4ccccc4)c4ccccc4)C(C)=C1C3(C)C)[C@]1(OC(C)=O)CO[C@@H]1C[C@@H]2O [paclitaxel]
blood half-life period [2]: 1.1 h

cyanine dye 5.5 [Cy5.5]
whole-body fluorescence distribution (SKOV-3 tumor [3]; after 4 hours of injection): no obvious presence in the mouse body | whole-body fluorescence distribution (SKOV-3 tumor [3]; after 12 hours): basically completely metabolized
